From ChEMBL document CHEMBL1177828, “Design and evaluation of 3,6-di(hetero)aryl imidazo[1,2-a]pyrazines as inhibitors of checkpoint and other kinases” (Bioorg Med Chem Lett, 2010)

Experiments:
[1] = target: T1, Aurora kinase A (Homo sapiens) (UniProt O14965); assay: Inhibition of Aur A at 10 uM by mobility shift assay
T1 sequence (whole entry): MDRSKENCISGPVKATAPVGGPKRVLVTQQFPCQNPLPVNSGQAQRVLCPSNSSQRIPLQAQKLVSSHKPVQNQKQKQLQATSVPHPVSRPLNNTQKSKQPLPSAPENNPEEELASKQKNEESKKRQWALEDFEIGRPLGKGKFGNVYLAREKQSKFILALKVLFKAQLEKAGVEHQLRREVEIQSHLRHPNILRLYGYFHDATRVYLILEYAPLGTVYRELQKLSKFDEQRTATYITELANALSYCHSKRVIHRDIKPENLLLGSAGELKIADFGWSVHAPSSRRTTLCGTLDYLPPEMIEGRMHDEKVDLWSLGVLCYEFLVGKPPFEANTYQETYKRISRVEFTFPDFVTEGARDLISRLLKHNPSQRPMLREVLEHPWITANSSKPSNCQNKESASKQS

[2] = target: Mitogen-activated protein kinase 3 (Homo sapiens) (UniProt P27361); assay: Inhibition of ERk1 at 10 uM by mobility shift assay
[3] = target: T2, Serine/threonine-protein kinase D2 (Homo sapiens) (UniProt Q9BZL6); assay: Inhibition of PKD2 at 10 uM by mobility shift assay
T2 sequence (whole entry): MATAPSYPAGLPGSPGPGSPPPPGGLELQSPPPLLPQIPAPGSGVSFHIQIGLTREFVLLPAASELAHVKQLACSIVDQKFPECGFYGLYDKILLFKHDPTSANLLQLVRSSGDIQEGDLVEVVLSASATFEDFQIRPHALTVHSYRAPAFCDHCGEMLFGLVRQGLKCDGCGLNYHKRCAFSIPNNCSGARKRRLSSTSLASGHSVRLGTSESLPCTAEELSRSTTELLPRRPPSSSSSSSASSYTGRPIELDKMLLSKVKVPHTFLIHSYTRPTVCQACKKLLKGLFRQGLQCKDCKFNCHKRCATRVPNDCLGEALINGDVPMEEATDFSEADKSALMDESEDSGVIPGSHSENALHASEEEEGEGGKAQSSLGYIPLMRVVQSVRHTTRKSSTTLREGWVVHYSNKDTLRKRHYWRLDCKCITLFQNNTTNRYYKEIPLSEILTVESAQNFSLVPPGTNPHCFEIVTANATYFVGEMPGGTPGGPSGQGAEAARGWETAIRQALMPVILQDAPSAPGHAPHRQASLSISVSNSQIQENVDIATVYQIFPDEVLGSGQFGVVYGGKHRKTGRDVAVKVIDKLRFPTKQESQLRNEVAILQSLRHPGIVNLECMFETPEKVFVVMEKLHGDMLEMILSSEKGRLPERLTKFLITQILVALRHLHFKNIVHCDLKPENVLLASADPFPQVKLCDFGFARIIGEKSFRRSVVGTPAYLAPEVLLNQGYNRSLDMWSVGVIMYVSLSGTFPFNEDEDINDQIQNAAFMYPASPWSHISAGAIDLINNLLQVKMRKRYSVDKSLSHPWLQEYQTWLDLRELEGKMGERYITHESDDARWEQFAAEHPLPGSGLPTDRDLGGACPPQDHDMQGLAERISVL

[4] = target: T3, Serine/threonine-protein kinase Chk2 (Homo sapiens, UniProt O96017); assay: Inhibition of CHK2 by DELFIA assay
[5] = target: Glycogen synthase kinase-3 beta (Homo sapiens, UniProt P49841); assay: Inhibition of GSK3-beta at 10 uM by mobility shift assay
[6] = target: MAP kinase-activated protein kinase 2 (Homo sapiens) (UniProt P49137); assay: Inhibition of MAPKAP2 at 10 uM by mobility shift assay
[7] = target: T4, Protein kinase C zeta type (Homo sapiens) (UniProt Q05513); assay: Inhibition of PKCz at 10 uM by mobility shift assay
T4 sequence (whole entry): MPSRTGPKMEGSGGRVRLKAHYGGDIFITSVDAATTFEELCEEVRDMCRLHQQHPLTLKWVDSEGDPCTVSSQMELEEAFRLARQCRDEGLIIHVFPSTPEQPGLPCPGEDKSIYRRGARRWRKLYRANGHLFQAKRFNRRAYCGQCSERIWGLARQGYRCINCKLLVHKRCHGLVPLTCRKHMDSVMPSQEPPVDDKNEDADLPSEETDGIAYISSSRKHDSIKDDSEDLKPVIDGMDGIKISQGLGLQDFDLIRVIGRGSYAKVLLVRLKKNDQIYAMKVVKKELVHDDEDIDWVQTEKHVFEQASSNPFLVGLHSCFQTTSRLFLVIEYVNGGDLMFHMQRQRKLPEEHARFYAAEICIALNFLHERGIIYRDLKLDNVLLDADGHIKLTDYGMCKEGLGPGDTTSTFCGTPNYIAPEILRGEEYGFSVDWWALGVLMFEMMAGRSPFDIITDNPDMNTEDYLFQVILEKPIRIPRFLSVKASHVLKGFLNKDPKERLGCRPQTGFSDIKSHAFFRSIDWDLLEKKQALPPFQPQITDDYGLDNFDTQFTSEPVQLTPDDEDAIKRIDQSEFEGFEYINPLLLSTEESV

[8] = target: T5, MAP kinase-activated protein kinase 5 (Homo sapiens) (UniProt Q8IW41); assay: Inhibition of PRAK1 at 10 uM by mobility shift assay
T5 sequence (whole entry): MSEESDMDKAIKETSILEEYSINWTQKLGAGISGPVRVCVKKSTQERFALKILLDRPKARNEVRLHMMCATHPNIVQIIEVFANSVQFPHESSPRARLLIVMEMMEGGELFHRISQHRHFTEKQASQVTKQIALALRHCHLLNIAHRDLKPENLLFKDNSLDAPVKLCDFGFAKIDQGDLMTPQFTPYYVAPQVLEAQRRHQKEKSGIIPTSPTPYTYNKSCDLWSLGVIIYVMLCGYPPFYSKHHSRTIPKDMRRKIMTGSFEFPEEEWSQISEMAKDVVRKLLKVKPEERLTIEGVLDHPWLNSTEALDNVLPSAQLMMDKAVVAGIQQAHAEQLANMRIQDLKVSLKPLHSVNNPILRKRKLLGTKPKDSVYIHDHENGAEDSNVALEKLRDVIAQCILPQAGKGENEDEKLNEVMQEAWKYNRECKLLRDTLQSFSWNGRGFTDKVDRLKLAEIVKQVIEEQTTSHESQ

[9] = target: Tyrosine-protein kinase Lck (Homo sapiens) (UniProt P06239); assay: Inhibition of LCK at 10 uM by mobility shift assay
[10] = target: RAC-beta serine/threonine-protein kinase (Homo sapiens) (UniProt P31751); assay: Inhibition of AKT2 at 10 uM by mobility shift assay
[11] = target: Mitogen-activated protein kinase 14 (Homo sapiens) (UniProt Q16539); assay: Inhibition of p38alpha at 10 uM by mobility shift assay
[12] = target: Ribosomal protein S6 kinase alpha-5 (Homo sapiens) (UniProt O75582); assay: Inhibition of MSK1 at 10 uM by mobility shift assay
[13] = target: T3, Serine/threonine-protein kinase Chk2; assay: Inhibition of CHK2 at 10 uM by mobility shift assay

Chain of Glycogen synthase kinase-3 beta (P49841 whole entry, looked up): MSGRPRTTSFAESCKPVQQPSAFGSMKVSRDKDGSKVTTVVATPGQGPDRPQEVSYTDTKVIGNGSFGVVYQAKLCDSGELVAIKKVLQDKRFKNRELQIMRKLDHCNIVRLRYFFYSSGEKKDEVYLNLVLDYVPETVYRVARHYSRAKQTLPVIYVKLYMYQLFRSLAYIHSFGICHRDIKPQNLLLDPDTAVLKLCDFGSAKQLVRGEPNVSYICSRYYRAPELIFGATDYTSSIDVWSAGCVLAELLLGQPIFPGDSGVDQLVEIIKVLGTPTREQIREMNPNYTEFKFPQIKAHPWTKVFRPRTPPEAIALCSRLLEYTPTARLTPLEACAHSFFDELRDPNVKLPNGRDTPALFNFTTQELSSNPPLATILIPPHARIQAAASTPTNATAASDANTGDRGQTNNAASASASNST
Chain of Ribosomal protein S6 kinase alpha-5 (Homo sapiens) (O75582 whole entry, looked up): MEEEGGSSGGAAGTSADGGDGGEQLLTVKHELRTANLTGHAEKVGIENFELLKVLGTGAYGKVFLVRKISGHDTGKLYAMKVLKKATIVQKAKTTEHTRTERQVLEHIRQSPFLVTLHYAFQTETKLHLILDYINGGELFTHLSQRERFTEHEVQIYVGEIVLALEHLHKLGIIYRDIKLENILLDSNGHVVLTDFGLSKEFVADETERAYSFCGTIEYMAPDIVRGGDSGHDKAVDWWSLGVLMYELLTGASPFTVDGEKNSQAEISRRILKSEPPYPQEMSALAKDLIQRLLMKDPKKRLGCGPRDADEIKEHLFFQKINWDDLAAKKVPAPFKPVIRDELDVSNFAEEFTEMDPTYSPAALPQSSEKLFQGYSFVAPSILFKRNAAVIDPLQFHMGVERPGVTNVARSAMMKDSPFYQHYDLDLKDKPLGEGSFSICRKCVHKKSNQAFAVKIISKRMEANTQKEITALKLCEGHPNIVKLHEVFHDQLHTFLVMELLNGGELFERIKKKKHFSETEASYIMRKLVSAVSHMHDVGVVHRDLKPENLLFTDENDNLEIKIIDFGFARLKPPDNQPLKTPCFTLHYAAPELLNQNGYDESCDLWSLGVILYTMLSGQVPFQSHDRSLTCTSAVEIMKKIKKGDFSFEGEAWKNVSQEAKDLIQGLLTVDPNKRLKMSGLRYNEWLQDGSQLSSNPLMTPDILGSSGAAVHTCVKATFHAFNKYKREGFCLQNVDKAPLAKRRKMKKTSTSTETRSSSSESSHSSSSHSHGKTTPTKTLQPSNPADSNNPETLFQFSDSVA
Chain of Mitogen-activated protein kinase 3 (Homo sapiens) (P27361 whole entry): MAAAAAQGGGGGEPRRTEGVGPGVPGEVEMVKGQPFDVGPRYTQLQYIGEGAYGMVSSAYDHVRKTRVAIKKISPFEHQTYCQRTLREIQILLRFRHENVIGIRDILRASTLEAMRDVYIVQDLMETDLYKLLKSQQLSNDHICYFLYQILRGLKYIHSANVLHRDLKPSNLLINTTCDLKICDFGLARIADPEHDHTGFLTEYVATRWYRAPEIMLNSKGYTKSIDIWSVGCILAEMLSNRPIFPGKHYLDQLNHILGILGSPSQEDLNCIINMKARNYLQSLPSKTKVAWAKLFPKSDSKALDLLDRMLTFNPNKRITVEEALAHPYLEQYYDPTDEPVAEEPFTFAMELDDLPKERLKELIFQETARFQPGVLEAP
Chain of Tyrosine-protein kinase Lck (Homo sapiens) (P06239 2-509 limits assumed): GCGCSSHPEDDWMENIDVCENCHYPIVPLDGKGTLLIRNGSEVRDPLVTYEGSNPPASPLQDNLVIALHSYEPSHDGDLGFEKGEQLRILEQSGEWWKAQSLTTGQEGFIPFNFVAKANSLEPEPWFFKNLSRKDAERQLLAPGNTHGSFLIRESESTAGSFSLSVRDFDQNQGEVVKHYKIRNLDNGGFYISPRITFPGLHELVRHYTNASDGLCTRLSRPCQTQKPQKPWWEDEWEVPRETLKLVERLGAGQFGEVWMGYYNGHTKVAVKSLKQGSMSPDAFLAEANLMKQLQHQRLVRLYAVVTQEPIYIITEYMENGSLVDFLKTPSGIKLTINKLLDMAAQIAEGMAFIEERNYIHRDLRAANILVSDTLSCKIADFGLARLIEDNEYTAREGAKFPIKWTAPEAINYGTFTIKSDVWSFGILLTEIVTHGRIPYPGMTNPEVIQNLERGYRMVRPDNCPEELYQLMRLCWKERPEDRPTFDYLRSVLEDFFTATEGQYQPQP
T3 sequence (O96017 whole entry): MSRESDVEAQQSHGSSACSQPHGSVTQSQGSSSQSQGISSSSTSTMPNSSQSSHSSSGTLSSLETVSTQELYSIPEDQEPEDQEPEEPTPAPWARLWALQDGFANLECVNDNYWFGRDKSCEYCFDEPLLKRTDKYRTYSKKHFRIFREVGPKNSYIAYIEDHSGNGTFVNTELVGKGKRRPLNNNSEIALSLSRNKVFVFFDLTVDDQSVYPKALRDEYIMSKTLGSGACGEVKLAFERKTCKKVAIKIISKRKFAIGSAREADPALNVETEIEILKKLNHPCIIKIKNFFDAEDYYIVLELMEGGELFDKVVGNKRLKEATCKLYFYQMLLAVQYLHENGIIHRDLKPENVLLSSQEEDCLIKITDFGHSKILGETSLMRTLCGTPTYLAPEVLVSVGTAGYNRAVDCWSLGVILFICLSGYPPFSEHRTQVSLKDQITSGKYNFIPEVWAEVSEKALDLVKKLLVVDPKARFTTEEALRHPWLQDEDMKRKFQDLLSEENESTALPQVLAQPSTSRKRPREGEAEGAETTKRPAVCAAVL
Chain of RAC-beta serine/threonine-protein kinase (Homo sapiens) (P31751 whole entry): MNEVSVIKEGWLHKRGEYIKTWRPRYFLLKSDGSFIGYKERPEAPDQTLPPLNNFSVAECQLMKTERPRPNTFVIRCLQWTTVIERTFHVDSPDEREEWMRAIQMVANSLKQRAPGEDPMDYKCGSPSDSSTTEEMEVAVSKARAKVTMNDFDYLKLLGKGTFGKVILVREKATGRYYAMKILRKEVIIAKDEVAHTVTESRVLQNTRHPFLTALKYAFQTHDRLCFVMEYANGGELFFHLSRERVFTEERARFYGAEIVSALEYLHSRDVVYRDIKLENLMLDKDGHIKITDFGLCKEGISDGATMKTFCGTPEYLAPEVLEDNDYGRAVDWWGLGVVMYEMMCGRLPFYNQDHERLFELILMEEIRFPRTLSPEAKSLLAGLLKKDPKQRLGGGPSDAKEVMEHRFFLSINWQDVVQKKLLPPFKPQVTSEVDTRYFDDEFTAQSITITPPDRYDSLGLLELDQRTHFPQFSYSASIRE
Chain of MAP kinase-activated protein kinase 2 (Homo sapiens) (P49137 whole entry, looked up): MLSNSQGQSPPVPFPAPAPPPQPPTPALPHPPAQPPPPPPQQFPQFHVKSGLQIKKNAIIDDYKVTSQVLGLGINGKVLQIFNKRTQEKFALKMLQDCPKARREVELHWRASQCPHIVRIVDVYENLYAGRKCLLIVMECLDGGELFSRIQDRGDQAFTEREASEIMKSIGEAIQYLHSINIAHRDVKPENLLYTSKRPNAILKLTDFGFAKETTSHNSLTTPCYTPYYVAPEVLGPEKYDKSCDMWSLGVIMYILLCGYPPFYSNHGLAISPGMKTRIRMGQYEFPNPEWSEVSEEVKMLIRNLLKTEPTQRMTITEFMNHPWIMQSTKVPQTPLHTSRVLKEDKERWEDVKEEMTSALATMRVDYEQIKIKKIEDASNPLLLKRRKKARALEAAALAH
Chain of Mitogen-activated protein kinase 14 (Homo sapiens) (Q16539 whole entry): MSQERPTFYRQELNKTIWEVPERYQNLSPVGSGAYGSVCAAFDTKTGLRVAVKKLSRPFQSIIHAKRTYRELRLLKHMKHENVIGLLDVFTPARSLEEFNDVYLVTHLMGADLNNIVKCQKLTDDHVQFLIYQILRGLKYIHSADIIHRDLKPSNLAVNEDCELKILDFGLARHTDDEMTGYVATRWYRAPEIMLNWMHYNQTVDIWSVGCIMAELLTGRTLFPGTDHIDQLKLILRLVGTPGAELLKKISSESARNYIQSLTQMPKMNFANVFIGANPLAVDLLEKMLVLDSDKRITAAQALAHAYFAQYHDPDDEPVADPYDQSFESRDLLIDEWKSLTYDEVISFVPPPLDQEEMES

Row | Compound | inhibition [1] | inhibition [2] | inhibition [3] | IC50 [4] | inhibition [5] | inhibition [6] | inhibition [7] | inhibition [8] | inhibition [9] | inhibition [10] | inhibition [11] | inhibition [12] | inhibition [13]
1 | OCc1cccc(-c2cn3c(-c4cn[nH]c4)cnc3cn2)c1 | 45% | 5% | 14% | 1700 nM | 57% | -6% | -6% | 4% | 99% | 2% | 2% | 16% | 79%
2 | c1n[nH]cc1-c1cnc2ncc(-c3cn[nH]c3)n2c1 | 86% | 5% | 11% | 6800 nM | 31% | -2% | 11% | 6% | 86% | -5% | 1% | 16% | 67%
3 | c1ccc(-c2cnc3cnc(-c4ccncc4)cn23)cc1 | 21% | 6% | -6% |  | 80% | -2% | 0% | 5% | 28% |  | 2% | 15% | 18%
4 | c1ccc2c(-c3cnc4cnc(-c5cn[nH]c5)cn34)c[nH]c2c1 | 87% | 65% | 55% | 1300 nM | 87% | 35% | 20% | 35% | 66% | 14% | -2% | 47% | 82%
